From ChEMBL document CHEMBL4382260, “Synthesis and biological evaluation as antiangiogenic agents of ureas derived from 3'-aminocombretastatin A-4” (Eur J Med Chem, 2019)
pIC50: −log10 of the molar value. One block for each compound: values may come before it. Calls of active or inactive are those of the source. The calls are words filed in the database; no cut-off is given here.

Tests used:
[1] = target: T1, Tubulin (Homo sapiens) (UniProt P68371+Q9H4B7+P0DPH7+P68366+Q13509+Q71U36+P04350+Q3ZCM7+P07437+P68363+Q9BQE3+Q6PEY2+Q13885+Q9BVA1+Q9BUF5); test: Disruption of microtubule network in human A549 cells assessed as compressed and fragmented nuclei at […] after 16 hrs by Hoechst staining based immunofluorescence microscopic method; format: cell-based
[2] = target: Vascular endothelial growth factor receptor 2 (Homo sapiens) (UniProt P35968); test: Inhibition of VEGFR2 internalization in HMEC1 cells assessed as membrane VEGFR2 level at […] after 24 hrs by flow cytometry (reference value: 100%); format: cell-based; parameters: scale not given: the % may be the effect or the level left
[3] = target: Vascular endothelial growth factor receptor 2 (Homo sapiens) (UniProt P35968); test: Inhibition of VEGFR2 internalization in HMEC1 cells assessed as total VEGFR2 level at […] after 24 hrs by flow cytometry (reference value: 100%); format: cell-based; parameters: scale not given: the % may be the effect or the level left
[4] = target: Vascular endothelial growth factor receptor 2 (Homo sapiens) (UniProt P35968); test: Inhibition of VEGFR2 internalization in HMEC1 cells assessed as membrane VEGFR2 level at 0.6 uM after 24 hrs by flow cytometry (reference value: 100%); format: cell-based; parameters: scale not given: the % may be the effect or the level left
[5] = target: Vascular endothelial growth factor receptor 2 (Homo sapiens) (UniProt P35968); test: Inhibition of VEGFR2 internalization in HMEC1 cells assessed as total VEGFR2 level at 0.6 uM after 24 hrs by flow cytometry (reference value: 100%); format: cell-based; parameters: scale not given: the % may be the effect or the level left
[6] = target: Vascular endothelial growth factor receptor 2 (Homo sapiens) (UniProt P35968); test: Inhibition of VEGFR2 internalization in HMEC1 cells at 0.6 uM after 24 hrs by immunofluorescence assay; format: cell-based
[7] = target: Vascular endothelial growth factor receptor 2 (Homo sapiens) (UniProt P35968); test: Inhibition of VEGFR2 internalization in human A549 cells at […] after 24 hrs by immunofluorescence assay; format: cell-based
[8] = target: Vascular endothelial growth factor receptor 2 (Homo sapiens) (UniProt P35968); test: Inhibition of VEGFR2 internalization in HMEC1 cells assessed as membrane VEGFR2 level at 120 uM after 24 hrs by flow cytometry (reference value: 100%); format: cell-based; parameters: scale not given: the % may be the effect or the level left
[9] = target: Vascular endothelial growth factor receptor 2 (Homo sapiens) (UniProt P35968); test: Inhibition of VEGFR2 internalization in HMEC1 cells assessed as total VEGFR2 level at 120 uM after 24 hrs by flow cytometry (reference value: 100%); format: cell-based; parameters: scale not given: the % may be the effect or the level left
[10] = target: Vascular endothelial growth factor receptor 2 (Homo sapiens) (UniProt P35968); test: Inhibition of VEGFR2 internalization in HMEC1 cells at 120 uM after 24 hrs by immunofluorescence assay; format: cell-based
[11] = target: Vascular endothelial growth factor receptor 2 (Homo sapiens) (UniProt P35968); test: Inhibition of VEGFR2 internalization in human A549 cells at 48 uM after 24 hrs by immunofluorescence assay; format: cell-based
[12] = target: T1, Tubulin (Homo sapiens); test: Disruption of microtubule network in human A549 cells assessed as compressed and fragmented nuclei at 28 uM after 16 hrs by Hoechst staining based immunofluorescence microscopic method; format: cell-based
[13] = target: Vascular endothelial growth factor receptor 2 (Homo sapiens) (UniProt P35968); test: Inhibition of VEGFR2 internalization in HMEC1 cells assessed as membrane VEGFR2 level at 12 uM after 24 hrs by flow cytometry (reference value: 100%); format: cell-based; parameters: scale not given: the % may be the effect or the level left
[14] = target: Vascular endothelial growth factor receptor 2 (Homo sapiens) (UniProt P35968); test: Inhibition of VEGFR2 internalization in HMEC1 cells assessed as total VEGFR2 level at 12 uM after 24 hrs by flow cytometry (reference value: 100%); format: cell-based; parameters: scale not given: the % may be the effect or the level left
[15] = target: Vascular endothelial growth factor receptor 2 (Homo sapiens) (UniProt P35968); test: Inhibition of VEGFR2 internalization in HMEC1 cells at 12 uM after 24 hrs by immunofluorescence assay; format: cell-based
[16] = target: Vascular endothelial growth factor receptor 2 (Homo sapiens) (UniProt P35968); test: Inhibition of VEGFR2 internalization in human A549 cells at 28 uM after 24 hrs by immunofluorescence assay; format: cell-based
[17] = target: T1, Tubulin (Homo sapiens); test: Disruption of microtubule network in human A549 cells assessed as compressed and fragmented nuclei at 18 uM after 16 hrs by Hoechst staining based immunofluorescence microscopic method; format: cell-based
[18] = target: Vascular endothelial growth factor receptor 2 (Homo sapiens) (UniProt P35968); test: Inhibition of VEGFR2 internalization in HMEC1 cells assessed as membrane VEGFR2 level at 8 uM after 24 hrs by flow cytometry (reference value: 100%); format: cell-based; parameters: scale not given: the % may be the effect or the level left
[19] = target: Vascular endothelial growth factor receptor 2 (Homo sapiens) (UniProt P35968); test: Inhibition of VEGFR2 internalization in HMEC1 cells assessed as total VEGFR2 level at 8 uM after 24 hrs by flow cytometry (reference value: 100%); format: cell-based; parameters: scale not given: the % may be the effect or the level left
[20] = target: Vascular endothelial growth factor receptor 2 (Homo sapiens) (UniProt P35968); test: Inhibition of VEGFR2 internalization in HMEC1 cells at 8 uM after 24 hrs by immunofluorescence assay; format: cell-based
[21] = target: Vascular endothelial growth factor receptor 2 (Homo sapiens) (UniProt P35968); test: Inhibition of VEGFR2 internalization in human A549 cells at 18 uM after 24 hrs by immunofluorescence assay; format: cell-based
[22] = test system: HL-60; test: Antiproliferative activity against human HL60 cells by MTT assay; format: functional, cell-based
[23] = test system: A549; test: Cell cycle arrest in human A549 cells assessed as accumulation at subG0 phase at 22 uM after 24 hrs by propidium iodide staining based flow cytometry (reference value: 2 +/- 0.8%); format: functional
[24] = test system: A549; test: Cell cycle arrest in human A549 cells assessed as accumulation at G0/G1 phase at 22 uM after 24 hrs by propidium iodide staining based flow cytometry (reference value: 60 +/- 1%); format: functional
[25] = test system: A549; test: Cell cycle arrest in human A549 cells assessed as accumulation at S phase at 22 uM after 24 hrs by propidium iodide staining based flow cytometry (reference value: 28 +/- 0.6%); format: functional
[26] = test system: A549; test: Cell cycle arrest in human A549 cells assessed as accumulation at G2/M phase at 22 uM after 24 hrs by propidium iodide staining based flow cytometry (reference value: 10 +/- 0.8%); format: functional
[27] = test system: A549; test: Induction of apoptosis in human A549 cells at 100 uM after 20 to 24 hrs by Annexin V-FITC/propidium iodide staining based flow cytometry (reference value: 16%); format: functional
[28] = test system: A549; test: Induction of apoptosis in human A549 cells at 50 uM after 20 to 24 hrs by Annexin V-FITC/propidium iodide staining based flow cytometry (reference value: 16%); format: functional
[29] = test system: HMEC-1; test: Antiangiogenic activity against HMEC1 cells after 20 hrs by tube formation assay; conditions: Homo sapiens, HMEC-1, 20 h
[30] = target: Vascular endothelial growth factor receptor 2 (Homo sapiens) (UniProt P35968); test: Inhibition of VEGFR2 internalization in HMEC1 cells assessed as membrane VEGFR2 level at 6 uM after 24 hrs by flow cytometry (reference value: 100%); format: cell-based; parameters: scale not given: the % may be the effect or the level left
[31] = target: Vascular endothelial growth factor receptor 2 (Homo sapiens) (UniProt P35968); test: Inhibition of VEGFR2 internalization in HMEC1 cells assessed as total VEGFR2 level at 6 uM after 24 hrs by flow cytometry (reference value: 100%); format: cell-based; parameters: scale not given: the % may be the effect or the level left
[32] = target: Vascular endothelial growth factor receptor 2 (Homo sapiens) (UniProt P35968); test: Inhibition of VEGFR2 internalization in HMEC1 cells at 6 uM after 24 hrs by immunofluorescence assay; format: cell-based
[33] = target: Vascular endothelial growth factor receptor 2 (Homo sapiens) (UniProt P35968); test: Inhibition of VEGFR2 internalization in HMEC1 cells assessed as membrane VEGFR2 level at 15 uM after 24 hrs by flow cytometry (reference value: 100%); format: cell-based; parameters: scale not given: the % may be the effect or the level left
[34] = target: Vascular endothelial growth factor receptor 2 (Homo sapiens) (UniProt P35968); test: Inhibition of VEGFR2 internalization in HMEC1 cells assessed as total VEGFR2 level at 15 uM after 24 hrs by flow cytometry (reference value: 100%); format: cell-based; parameters: scale not given: the % may be the effect or the level left
[35] = target: Vascular endothelial growth factor receptor 2 (Homo sapiens) (UniProt P35968); test: Inhibition of VEGFR2 internalization in HMEC1 cells at 15 uM after 24 hrs by immunofluorescence assay; format: cell-based
[36] = target: Vascular endothelial growth factor receptor 2 (Homo sapiens) (UniProt P35968); test: Inhibition of VEGFR2 internalization in human A549 cells at 44 uM after 24 hrs by immunofluorescence assay; format: cell-based
[37] = test system: A549; test: Cell cycle arrest in human A549 cells assessed as accumulation at subG0 phase at […] after 24 hrs by propidium iodide staining based flow cytometry (reference value: 2 +/- 0.8%); format: functional
[38] = test system: A549; test: Cell cycle arrest in human A549 cells assessed as accumulation at G0/G1 phase at […] after 24 hrs by propidium iodide staining based flow cytometry (reference value: 60 +/- 1%); format: functional
[39] = test system: A549; test: Cell cycle arrest in human A549 cells assessed as accumulation at S phase at […] after 24 hrs by propidium iodide staining based flow cytometry (reference value: 28 +/- 0.6%); format: functional
[40] = test system: A549; test: Cell cycle arrest in human A549 cells assessed as accumulation at G2/M phase at […] after 24 hrs by propidium iodide staining based flow cytometry (reference value: 10 +/- 0.8%); format: functional

Vascular endothelial growth factor receptor 2 (Homo sapiens), sequence (P35968 whole entry): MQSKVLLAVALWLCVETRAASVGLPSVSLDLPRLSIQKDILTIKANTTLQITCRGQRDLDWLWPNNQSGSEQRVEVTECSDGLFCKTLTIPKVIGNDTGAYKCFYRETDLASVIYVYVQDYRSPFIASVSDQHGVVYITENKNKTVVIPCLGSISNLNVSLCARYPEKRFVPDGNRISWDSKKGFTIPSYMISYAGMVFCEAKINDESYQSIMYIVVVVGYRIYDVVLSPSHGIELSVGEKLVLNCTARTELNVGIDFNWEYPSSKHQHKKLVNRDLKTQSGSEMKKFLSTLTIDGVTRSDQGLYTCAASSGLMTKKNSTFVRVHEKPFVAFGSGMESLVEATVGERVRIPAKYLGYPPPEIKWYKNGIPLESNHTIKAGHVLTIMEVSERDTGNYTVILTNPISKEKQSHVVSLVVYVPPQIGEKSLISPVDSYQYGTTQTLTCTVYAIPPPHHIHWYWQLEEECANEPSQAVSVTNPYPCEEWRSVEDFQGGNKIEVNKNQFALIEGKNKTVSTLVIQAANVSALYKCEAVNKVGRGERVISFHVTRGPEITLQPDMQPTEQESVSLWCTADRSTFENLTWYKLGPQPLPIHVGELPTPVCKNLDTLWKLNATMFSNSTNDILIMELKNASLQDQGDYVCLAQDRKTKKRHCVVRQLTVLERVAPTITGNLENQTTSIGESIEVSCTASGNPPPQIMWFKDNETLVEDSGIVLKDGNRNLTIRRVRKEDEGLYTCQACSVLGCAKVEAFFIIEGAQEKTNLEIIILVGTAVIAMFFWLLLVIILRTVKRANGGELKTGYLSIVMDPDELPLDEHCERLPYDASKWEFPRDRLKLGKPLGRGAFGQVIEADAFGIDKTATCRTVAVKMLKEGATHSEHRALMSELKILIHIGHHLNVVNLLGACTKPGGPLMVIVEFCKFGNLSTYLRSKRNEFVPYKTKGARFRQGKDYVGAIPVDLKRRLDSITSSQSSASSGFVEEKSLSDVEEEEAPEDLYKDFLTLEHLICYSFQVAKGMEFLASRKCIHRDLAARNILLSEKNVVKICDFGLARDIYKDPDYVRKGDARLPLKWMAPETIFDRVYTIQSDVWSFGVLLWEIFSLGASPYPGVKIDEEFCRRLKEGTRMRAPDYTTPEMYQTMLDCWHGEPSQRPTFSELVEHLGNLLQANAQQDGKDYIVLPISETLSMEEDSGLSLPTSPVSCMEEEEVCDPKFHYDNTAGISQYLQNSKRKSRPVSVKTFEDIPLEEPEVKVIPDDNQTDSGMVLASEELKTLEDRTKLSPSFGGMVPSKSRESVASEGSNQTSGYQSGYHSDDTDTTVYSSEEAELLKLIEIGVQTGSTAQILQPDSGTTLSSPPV

- Activity [1]: Active
- Activity [2]: 71%
- Activity [3]: 97%
SMILES: COc1ccc(/C=C\c2cc(OC)c(OC)c(OC)c2)cc1NC(=O)Nc1cccc(Cl)c1C

- Activity [1]: Active
- Activity [4]: 48%
- Activity [5]: 80%
- inhibition [6]: Active
- inhibition [7]: Active
SMILES: COc1ccc(/C=C\c2cc(OC)c(OC)c(OC)c2)cc1NC(=O)Nc1ccccc1Br

- Activity [8]: 62%
- Activity [9]: 15%
- inhibition [10]: Active
- inhibition [11]: Active
SMILES: COc1ccc(/C=C\c2cc(OC)c(OC)c(OC)c2)cc1NC(=O)Nc1cc(C)cc(C)c1

- Activity [12]: Active
- Activity [13]: 61%
- Activity [14]: 148%
- inhibition [15]: Active
- inhibition [16]: Active
SMILES: COc1ccc(/C=C\c2cc(OC)c(OC)c(OC)c2)cc1NC(=O)Nc1ccc(C)c(C)c1

- Activity [17]: Active
- Activity [18]: 71%
- Activity [19]: 87%
- inhibition [20]: Active
- inhibition [21]: Active
SMILES: COc1ccc(/C=C\c2cc(OC)c(OC)c(OC)c2)cc1NC(=O)Nc1cccc(C)c1

- pIC50 [22]: 5.15
- pIC50 [29]: 5.15
SMILES: CCN(CC)CCNC(=O)c1c(C)[nH]c(/C=C2\C(=O)Nc3ccc(F)cc32)c1C [SUNITINIB]
- Activity [23]: 2.4%
- Activity [24]: 47%
- Activity [25]: 35%
- Activity [26]: 16%
- Activity [27]: 45%
- Activity [28]: 38%

- Activity [30]: 43%
- Activity [31]: 46%
- inhibition [32]: Active
- inhibition [7]: Active
SMILES: COc1ccc(/C=C\c2cc(OC)c(OC)c(OC)c2)cc1NC(=O)Nc1ccccc1Cl

- Activity [33]: 80%
- Activity [34]: 100%
- inhibition [35]: Active
- inhibition [36]: Active
SMILES: COc1ccc(/C=C\c2cc(OC)c(OC)c(OC)c2)cc1NC(=O)Nc1ccc(Cl)c(C)c1

- Activity [1]: Active
SMILES: COc1ccc(/C=C\c2cc(OC)c(OC)c(OC)c2)cc1NC(=O)Nc1cccc(Br)c1

SMILES: COc1ccc(/C=C\c2cc(OC)c(OC)c(OC)c2)cc1N
- Activity [37]: 14%
- Activity [38]: 21%
- Activity [39]: 24%
- Activity [40]: 41%
- Activity [27]: 52%
- Activity [28]: 32%

- pIC50 [22]: 5.30
- pIC50 [29]: 4.47
SMILES: CNC(=O)c1cc(Oc2ccc(NC(=O)Nc3ccc(Cl)c(C(F)(F)F)c3)cc2)ccn1 [SORAFENIB]
- Activity [27]: 38%
- Activity [28]: 30%
